SMILES strings stand for the structures. “And” between values parts separate entries of the source, which are not always exact repeats. Equal entries are not always repeated. Where two headings read alike, the source gives them in different places.

Data set [1] in a line: Metabolic stability in monkey liver microsomes. In kind it is in vitro ADME. The method, then: FMO was deactivated by heating liver microsomes at 45°C for 5 min. […] The natural logarithm of the percentage of the drug remaining was plotted against the incubation time, and the slope of the linear regression (-k) was converted to in vitro half-lives (t1/2) using the following equation: […] (1) metabolic clearance is the major mechanism of clearance; (2) liver is the major organ of clearance; and (3) oxidation is the major metabolic pathway. CLint,in vitro=k / Cmicrosomes , Scaled CLint,in vivo=CLint,in vitro×microsomes yield×liver weight, where Cmicrosomes means the experimental protein concentration (0.5 mg/mL) in the incubation system. […] Then, the scaled in vivo intrinsic clearance was used to predict the systemic clearance (equal to the hepatic clearance) using the well-stirred venous equilibration model ([Houston, 1994]).

Data set [2] addresses T1, CYP1A2 (Homo sapiens, UniProt P05177).
T1 construct: tissue Life Technologies (Durham, NC, USA); host or cells: human liver microsomes
T1 sequence (P05177 1-516): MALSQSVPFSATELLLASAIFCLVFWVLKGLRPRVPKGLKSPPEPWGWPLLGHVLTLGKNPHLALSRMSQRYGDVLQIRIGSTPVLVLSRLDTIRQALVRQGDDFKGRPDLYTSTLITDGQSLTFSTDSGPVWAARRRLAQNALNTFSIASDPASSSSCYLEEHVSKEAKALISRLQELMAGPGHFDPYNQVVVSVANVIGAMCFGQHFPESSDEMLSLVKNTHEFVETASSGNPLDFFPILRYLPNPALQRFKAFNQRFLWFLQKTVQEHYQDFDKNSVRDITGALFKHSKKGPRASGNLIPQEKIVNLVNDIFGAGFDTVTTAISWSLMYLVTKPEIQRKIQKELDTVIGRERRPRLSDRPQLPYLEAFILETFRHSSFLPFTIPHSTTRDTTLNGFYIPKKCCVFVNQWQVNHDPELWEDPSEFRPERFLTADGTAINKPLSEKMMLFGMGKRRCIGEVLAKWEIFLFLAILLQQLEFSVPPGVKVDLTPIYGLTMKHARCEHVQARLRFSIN
Put plainly: Reversible CYP inhibition in HLM, CYP1A2 (phenacetin). The settings on record: for enzyme activity remaining: CYP1A2, HLM. The format is in vitro ADME. The method, then: The markers used to determine the activities of CYP isoforms were phenacetin O-deethylation for CYP1A2 (probe substrate: 50 µM phenacetin), bupropion hydroxylation for CYP2B6 (probe substrate: 70 µM bupropion), paclitaxel 6α-hydroxylation for CYP2C8 (probe substrate: 10 µM paclitaxel), diclofenac 4′-hydroxylation for CYP2C9 (probe substrate: 5 µM diclofenac), S-(+)-mephenytoin 4′-hydroxylation for CYP2C19 (probe substrate: 20 µM S-(+)-mephenytoin), dextromethorphan O-demethylation for CYP2D6 (probe substrate: 6 µM dextromethorphan), chlorzoxazone 6′-hydroxylation for CYP2E1 (probe substrate: 70 µM chlorzoxazone), and testosterone 6β-hydroxylation and midazolam 1′-hydroxylation for CYP3A4/5 (probe substrate: 45 µM testosterone and 5 µM midazolam). […] Alpha-naphthoflavone (0.04 µM), 2-phenyl-2-(1-piperidinyl)propane (5 µM), quercetin (1 µM), sulfaphenazole (0.5 µM), ticlopidine (4 µM), quinidine (0.2 µM), diethyldithiocarbamate (20 µM), and ketoconazole (0.05 µM) were used as positive inhibitors of CYP1A2, 2B6, 2C8, 2C9, 2C19, 2D6, 2E1, and 3A4, respectively. The vehicle control was prepared in the same composition as inhibitor solutions but free of inhibitors. The concentrations of probe substrates were close to Km values that were determined in-house and within the range recommended by the FDA ([Huang et al., 2007]). Reaction mixtures were incubated at 37°C for 5, 20, or 30 min, depending on the probe substrates of CYP isoforms. The reactions were terminated by adding cold acetonitrile containing IS, and the terminated incubation mixtures were centrifuged at 3,000 g for 10 min before LC-MS/MS analysis.

As to `C[C@H](Nc1ncnc(N)c1C#N)c1cc2ncc(Cl)n2nc1-c1ccccc1` [Amdizalisib], the CLint scaled at 1 µM was 19.2 mL/min/kg in data set [1] (female, monkey, microsomes, pH 7.4, Predicted CL int, iv vivo); 30 mL/min/kg in data set [1] (male, monkey, microsomes, pH 7.4, Predicted CL int, iv vivo); 18.1 mL/min/kg in data set [1] (pH 7.4, female monkey liver microsomes, FMO deactivation, read-out: Predicted CL int, iv vivo). Also, the half-life at 1 µM in data set [1] (female, monkey, microsomes, pH 7.4, in vitro t1/2) was 1.63 h; in data set [1] (male, monkey, microsomes, pH 7.4, in vitro t1/2), 1.04 h; in data set [1] (pH 7.4, female monkey liver microsomes, FMO deactivation, read-out: in vitro t1/2) it was 1.72 h. For the same compound, the “Predicted CL sys” value in data set [1] (male monkey liver microsomes, FMO deactivation) is 15.9 mL/min/kg. Moreover, the IC50 in data set [2] was greater than 50 µM. Also, the enzyme activity remaining is 104% and 96.1% in data set [2] (0.08 μM); 102% and 99.1% in data set [2] (0.4 μM); 94.1% and 95.9% in data set [2] (2 μM); 97.6% and 90.1% in data set [2] (10 μM); 99.1% and 99.6% in data set [2] (50 μM).
